Measurements from patent US5223413A, “Process for the preparation of vancomycin” (Biochin Biotechnologial Leanyvallalat, priority 1989, dated 1993).
Counter-ions that a name gives are not always drawn.

System: ATCC 6633 Bacillus subtilis strain
Test: agar diffusion determination of antibiotic content / biological potency (USP XXII)
Type: cell-based
Settings: final product of Example 5, related to USP reference standard
Procedure: The quantitative determination of the antibiotic content of the fermentation broth and final product was performed by using the agar diffusion method according to the prescriptions of USP XXII. on the ATCC 6633 Bacillus subtilis strain. The vancomycin potency values were related to the commercially available USP reference standard.

CN[C@H](CC(C)C)C(=O)N[C@H]1C(=O)N[C@@H](CC(N)=O)C(=O)N[C@H]2C(=O)N[C@H]3C(=O)N[C@H](C(=O)N[C@H](C(=O)O)c4cc(O)cc(O)c4-c4cc3ccc4O)[C@H](O)c3ccc(c(Cl)c3)Oc3cc2cc(c3O[C@@H]2O[C@H](CO)[C@@H](O)[C@H](O)[C@H]2O[C@H]2C[C@](C)(N)[C@H](O)[C@H](C)O2)Oc2ccc(cc2Cl)[C@H]1O [vancomycin hydrochloride]
biological potency based on microbiological determination: higher than 968 μg/mg
